Tests used:
[1] = biological target: TEL-MTase fusion (nsp14 N7-MTase-TELSAM) (Severe acute respiratory syndrome coronavirus 2, UniProt P0DTD1); experiment: ITC binding to TEL-MTase fusion; design: species or system SARS-CoV-2
[2] = biological target: SARS-CoV-2 nsp14/nsp10 complex (Severe acute respiratory syndrome coronavirus 2, UniProt P0DTD1); experiment: ITC binding to full-length nsp14/nsp10 complex
[3] = biological target: SARS-CoV-2 MTase domain (residues 289–527) (Severe acute respiratory syndrome coronavirus 2, UniProt P0DTD1); experiment: ITC binding to isolated MTase domain

Compound | Kd [1] [µM] | Kd [2] [µM] | Kd [3] [µM]
Nc1ncnc2c1ncn2[C@@H]1O[C@H](CSCC[C@H](N)C(=O)O)[C@@H](O)[C@H]1O [SAH, S-adenosylhomocysteine] | 5 | 0.3 | –
C[S+](CC[C@H](N)C(=O)[O-])C[C@H]1O[C@@H](n2cnc3c(N)ncnc32)[C@H](O)[C@@H]1O (stereo partly shown) [SAM, S-adenosylmethionine] | – | 5.7 | 22 to 25
